Data on one compound can be found in ChEMBL document CHEMBL4342480, “Design of Dual Inhibitors of Soluble Epoxide Hydrolase and LTA4 Hydrolase” (ACS Med Chem Lett, 2020).

Holding throughout (format): functional
Assay [1] relates to Macrophage. Briefly: Antiinflammatory activity in Escherichia coli O6:K2:H1-induced human M2 macrophage assessed as change in PGE2 level at 1 uM preincubated for 10 mins followed by Escherichia coli O6:K2:H1-stimulation and measured after 180 mins by UPLC-MS/MS analysis relative to control.
Assay [2] concerns Macrophage. Briefly: Antiinflammatory activity in Escherichia coli O6:K2:H1-induced human M2 macrophage assessed as change in 12-HEPE level at 1 uM preincubated for 10 mins followed by Escherichia coli O6:K2:H1-stimulation and measured after 180 mins by UPLC-MS/MS analysis relative to control.
Assay [3] has as its system Macrophage. Kind of assay: Antiinflammatory activity in Escherichia coli O6:K2:H1-induced human M2 macrophage assessed as change in 12-HEPE level at 10 uM preincubated for 10 mins followed by Escherichia coli O6:K2:H1-stimulation and measured after 180 mins by UPLC-MS/MS analysis relative to control.
For assay [4], the system named is Macrophage. Kind of assay: Antiinflammatory activity in Escherichia coli O6:K2:H1-induced human M2 macrophage assessed as change in 4-HDHA level at 10 uM preincubated for 10 mins followed by Escherichia coli O6:K2:H1-stimulation and measured after 180 mins by UPLC-MS/MS analysis relative to control.
The subject of assay [5] is Macrophage. Kind of assay: Antiinflammatory activity in Escherichia coli O6:K2:H1-induced human M1 macrophage assessed as change in 12-HEPE level at 10 uM preincubated for 10 mins followed by Escherichia coli O6:K2:H1-stimulation and measured after 180 mins by UPLC-MS/MS analysis relative to control.
The subject of assay [6] is Macrophage. Briefly: Antiinflammatory activity in Escherichia coli O6:K2:H1-induced human M1 macrophage assessed as change in 5-HETE level at 10 uM preincubated for 10 mins followed by Escherichia coli O6:K2:H1-stimulation and measured after 180 mins by UPLC-MS/MS analysis relative to control.
In assay [7] the test system is Macrophage. Kind of assay: Antiinflammatory activity in Escherichia coli O6:K2:H1-induced human M1 macrophage assessed as change in […] level at 10 uM preincubated for 10 mins followed by Escherichia coli O6:K2:H1-stimulation and measured after 180 mins by UPLC-MS/MS analysis relative to control.
Assay [8] concerns Macrophage. Kind of assay: Antiinflammatory activity in Escherichia coli O6:K2:H1-induced human M2 macrophage assessed as change in 14-HDHA level at 1 uM preincubated for 10 mins followed by Escherichia coli O6:K2:H1-stimulation and measured after 180 mins by UPLC-MS/MS analysis relative to control.
In assay [9] the test system is Macrophage. Briefly: Antiinflammatory activity in Escherichia coli O6:K2:H1-induced human M1 macrophage assessed as change in 17-HDHA level at 1 uM preincubated for 10 mins followed by Escherichia coli O6:K2:H1-stimulation and measured after 180 mins by UPLC-MS/MS analysis relative to control.
For assay [10], the system named is Macrophage. Briefly: Antiinflammatory activity in Escherichia coli O6:K2:H1-induced human M2 macrophage assessed as change in 14-HDHA level at 10 uM preincubated for 10 mins followed by Escherichia coli O6:K2:H1-stimulation and measured after 180 mins by UPLC-MS/MS analysis relative to control.
Assay [11] concerns Macrophage. Kind of assay: Antiinflammatory activity in Escherichia coli O6:K2:H1-induced human M1 macrophage assessed as change in 12-HETE level at 1 uM preincubated for 10 mins followed by Escherichia coli O6:K2:H1-stimulation and measured after 180 mins by UPLC-MS/MS analysis relative to control.

Consider `O=C(Cc1ccc(Oc2nc3ccccc3s2)cc1F)NCCc1ccc(F)cc1`, for which the Activity is reported as 61% in assay [1]; 78% in assay [2]; 105% in assay [3]; 78% in [4]; 113% in [5]; 42% in [6]. Besides, the Activity in [7] is 82%; in assay [8], 103%; in assay [9], 97%; in assay [10], 106%; in assay [11] it was 99%.
